Test system: FKBP51
Assay: FKBP51 protein expression in primary term decidual cell cultures by immunoblotting
Type: cell-based
Settings: 24 hours
Procedure: This example describes an analysis of FKBP51 expression in primary term decidual cells (DCs) induced by dexamethasone (DEX) (0.1 μM) or 15dPGJ2 (5 or 20 μM) or DEX+15dPGJ2 (0.1 μM+5 or +20 μM).
Glucocorticoids (e.g. dexamethasone (DEX), medroxyprogesterone acetate) are primary inducers of FKBP51 mRNA and protein expression in decidual cells (DCs). It was determined that both restrained stress-induced preterm birth and fetal growth restriction are blocked in FKBP51 knockout mice compared to WT mice. To determine the potential therapeutic impact of 15-deoxy-Δ12,14-prostaglandin J2 (15dPGJ2) on regulation of dexamethasone-induced FKBP51, primary term DC cultures (n=1) were induced by DEX (0.1 μM), 15dPGJ2 (5 or 20 μM), or DEX+15dPGJ2 (0.1 μM+5 or +20 μM) for 24 hours, and FKBP51 protein levels were then analyzed by immunoblotting, as shown in FIG. 15A.

C[C@@H]1C[C@H]2[C@@H]3CCC4=CC(=O)C=C[C@]4(C)[C@@]3(F)[C@@H](O)C[C@]2(C)[C@@]1(O)C(=O)CO [DEX, dexamethasone]
increase of FKBP51 expression compared to control (DEX 0.1 μM alone, primary term DC cultures (n=1)): 60%

CCCCC/C=C/C=C1/C(=O)C=C[C@@H]1C/C=C\CCCC(=O)O [15dPGJ2, 15-deoxy-Δ12,14-prostaglandin J2]
decrease of FKBP51 expression compared to control (5 μm 15dPGJ2 alone, term DC cultures (n=1)): 10% | reduction of DEX-induced FKBP51 expression (5 μm 15dPGJ2 combined with DEX 0.1 μM, term DC cultures (n=1)): 12% | decrease of FKBP51 expression compared to control (20 μm 15dPGJ2 alone, term DC cultures (n=1)): 18% | effect on DEX-induced FKBP51 expression (20 μm 15dPGJ2 combined with DEX 0.1 μM, term DC cultures (n=1)): completely blocking DEX-induced FKBP51 expression
